Assay results as given in US5670501A, “N-substituted 9-alkyladenines” (Discovery Therapeutics, Inc., priority 1994, dated 1997).

Key:
adenosine A1 receptor [1] = target: T1, adenosine A1 receptor (Cavia porcellus, UniProt P47745); assay: A1 in vitro functional test: negative inotropic response, left atria, antagonism of NECA; type: cell-based, guinea pig; conditions: for Selectivity Ratio (A2 KB /A1 KB): functional; for Kb: guinea pig left atria, electrically evoked twitch, NECA agonist, 31° C, Schild plot, read-out: A1 KB (antagonist dissociation constant)
T1 construct: from tissue; host or cells: isolated guinea pig left atria
T1 sequence (P47745 1-326): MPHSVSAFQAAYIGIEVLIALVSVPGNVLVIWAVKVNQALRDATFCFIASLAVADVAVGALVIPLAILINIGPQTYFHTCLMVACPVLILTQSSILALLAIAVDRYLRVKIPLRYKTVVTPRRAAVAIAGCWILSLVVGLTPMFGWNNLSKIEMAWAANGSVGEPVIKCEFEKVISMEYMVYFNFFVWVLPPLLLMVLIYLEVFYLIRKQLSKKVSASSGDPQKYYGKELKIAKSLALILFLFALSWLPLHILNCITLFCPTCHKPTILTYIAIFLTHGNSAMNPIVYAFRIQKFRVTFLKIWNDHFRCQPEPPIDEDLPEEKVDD
Experimental: 2. Adenosine--A1 /A2 In Vitro Functional Tests
(A1 Assay: Negative inotropic response)-Guinea pig left atria were placed in organ baths filled with Krebs Henseleit solution gassed with 95% O2 and 5% CO2 and maintained at a temperature of 31° C. An initial resting tension of 1 gm. was placed on each tissue, which was allowed to equilibrate. Atria were stimulated electrically to produce twitch responses. A dose-response curve for the inhibition of the electrically-evoked twitch response was obtained by cumulative addition of the adenosine agonist […]. After the washout of the tissue, a fixed concentration of test compound was added and the tissue allowed to equilibrate for 1 hr. before cumulative additions of the adenosine agonist 5'-N-ethylcarboxamidoadenosine (NECA) to generate a new dose response curve. This procedure was repeated with different fixed concentrations of test compounds to generate a family of dose response curves. Schild plots were constructed from the resultant concentration-effect curves, and KB (antagonist dissociation constant) values were obtained. The results (see Table VII) are expressed as KB values (concentration of test compound such that one-half of the tissue adenosine receptor population is occupied by the test compound).

adenosine A2 receptor = assay: Receptor affinity (radioligand binding), A2, [3H]NECA; set-up: species or system bovine / guinea pig; conditions: room temperature, 1 hour
Experimental: (§1) 1. Receptor Affinity Experiments (Radioligand Binding)
(§2) Tissues (bovine caudate, guinea pig cortex, guinea pig striatum) were homogenized with a Brinkman polytron and the membranes were collected by centrifugation at 40,000×g at 4° C. for 10 min. The membranes were washed by resuspension and centrifugation, resuspended, and incubated in the presence of 1 U/ml adenosine deaminase for 15-30 min. at 37° C. The membranes were diluted, centrifuged once, and resuspended to a final concentration of 0.5-2 mg protein/ml. Adenosine deaminase (0.1 U/ml) was included in the final resuspension. Assays were initiated by addition of membranes. The compounds of the present invention were subjected to the following experimental conditions: A1 determinations/incubated with [^3 H]CHA at room temperature for 2 hours, A2 determinations/incubated with [^3 H]NECA at room temperature for 1 hour. Assays were terminated by filtration, and the filters were counted in scintillation counters.

adenosine A1 receptor [2] = target: T2, adenosine A1 receptor (Bos taurus, UniProt P28190); assay: Receptor affinity (radioligand binding), A1, [3H]CHA; set-up: species or system bovine; conditions: for Selectivity Ratio (A2 Ki /A1 Ki): radioligand binding; for Ki: [3H]CHA, room temperature, 2 hours, tissues listed: bovine caudate, guinea pig cortex, guinea pig striatum (only Example 13 marked guinea pig)
T2 construct: were homogenized with a Brinkman polytron and the membranes were collected by centrifugation; from tissue; host or cells: bovine caudate membranes
T2 sequence (P28190 1-326): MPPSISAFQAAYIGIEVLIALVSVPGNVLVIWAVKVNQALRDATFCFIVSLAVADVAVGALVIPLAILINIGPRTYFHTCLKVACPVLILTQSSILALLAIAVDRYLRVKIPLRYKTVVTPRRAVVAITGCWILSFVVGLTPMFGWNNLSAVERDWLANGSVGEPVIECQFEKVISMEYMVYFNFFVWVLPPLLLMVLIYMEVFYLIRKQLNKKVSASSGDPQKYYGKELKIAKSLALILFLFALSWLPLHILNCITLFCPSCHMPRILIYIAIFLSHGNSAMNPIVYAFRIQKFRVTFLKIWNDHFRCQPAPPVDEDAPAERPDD
Experimental: as §1, §2

adenosine A1 receptor [3] = target: T1, adenosine A1 receptor; assay: Receptor affinity (radioligand binding), A1, [3H]CHA, guinea pig tissue; conditions: room temperature, 2 hours, value obtained using guinea pig tissue
Experimental: as §1, §2
*This value was obtained using guinea pig tissue.

| Selectivity Ratio (A2 KB /A1 KB) (adenosine A1 receptor [1]) | Kb (adenosine A1 receptor [1]) | Ki (adenosine A2 receptor) | Selectivity Ratio (A2 Ki /A1 Ki) (adenosine A1 receptor [2]) | Ki (adenosine A1 receptor [3]) | Ki (adenosine A1 receptor [2]) | Structure (SMILES) |
| --- | --- | --- | --- | --- | --- | --- |
| > 20000 | 5 nM | 1050 nM | 166 | 6.31 nM | – | CC(C)N(C)c1nc2c(N[C@H]3C[C@H]4CC[C@@H]3C4)ncnc2n1C (relative stereo) [Example 13, (±)-N^6-(endo-2'-norbornyl)-8-isopropylmethylamino-9-methyladenine] |
| – | 2950 nM | 31600 nM | 323 | – | 97.7 nM | Cn1cnc2c(N[C@H]3C[C@@H]4C[C@H]3C[C@H]4O)ncnc21 (relative stereo) [Example 22] |
| 250 | 105 nM | 513 nM | 43 | – | 12 nM | COc1nc2c(N[C@H]3C[C@H]4CC[C@@H]3C4)ncnc2n1C (relative stereo) [Example 4, (±)-N^6-(endo-2'-norbornyl)-8-methoxy-9-methyladenine] |
| 4450 | 4 nM | 234 nM | 2,626 | – | 0.0891 nM | CC(C)N(C)c1nc2c(N[C@H]3C[C@@H]4C[C@H]3C[C@@H]4O)ncnc2n1C (relative stereo) [Example 16, (±)-N^6-[endo-2'-(endo-5'-hydroxy)norbornyl]-8-isopropylmethylamino-9-methyladenine] |
